This assay relates to D54 ERlucT glycosylation luciferase reporter, luminescence, 24 h. The experiment in a line: blockers of NLG process in reporter cells – D54 ERlucT cells, luminescence, cherry-picks, dose response (AID 624491).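 Note: signal gain reflects blocked N-linked glycosylation of a luciferase reporter; actives raise luciferase signal so AC26 marks activators of the reporter.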

On to `CC[C@H](C)C(=O)O[C@H]1C[C@@H](C)C=C2C=C[C@H](C)[C@H](CC[C@@H]3C[C@@H](O)CC(=O)O3)[C@H]21`, for which the AC26 is 301 nM.
For the compound `O=C(O)CCC/C=C\C[C@@H]1[C@@H](/C=C/[C@@H](O)COc2cccc(Cl)c2)[C@H](O)C[C@@H]1O`, the AC26 is < 1.2 nM.
For the compound `CCOc1ccccc1C(=O)Nc1ccsc1C(=O)OC`, the AC26 is 1300 nM.
With `Cc1ccc2c(c1)C(=O)N1[C@H]3c4cc(Br)ccc4OC[C@@H]3[C@H](c3ccccc3)[C@]1(C)C(=O)N2` the figure was 689 nM; with `O=C1[C@H]2[C@@H](c3ccc(F)cc3)N3C(=O)N(c4cccc(Cl)c4)C(=O)[C@@]3(Cc3ccccc3)[C@H]2C(=O)N1C1CCCCC1`, 16.4 nM.
With `CCOC(=O)C(CC)(CC)C(=O)/C=C/c1cccc(Br)c1`, the AC26 is 517 nM.
As for `CC(=O)Nc1ccc2cc3ccc(NC(C)=O)cc3nc2c1`, the AC26 was 5210 nM.
Regarding `CCCNC(=O)c1cc(-c2ccco2)on1`, the AC26 is 3780 nM.
Turning to `COc1ccc(C2(CNC(=O)c3cc(OC)c(OC)c(OC)c3)CCCC2)cc1OC`, the AC26 is 3140 nM.
The value for `Nc1ccc(-c2cc(NC=O)c3ncc(-c4cccc(C(F)(F)F)c4)n3c2)cn1` was 3430 nM; that for `c1ccc(-c2n[nH]c(-c3ccccc3)c2-c2nc3ccccc3[nH]2)cc1` was 4360 nM.
In the case of `Nc1c(N(Cc2ccccc2)C(=O)COc2ccc([N+](=O)[O-])cc2)c(=O)[nH]c(=O)n1Cc1ccccc1`, the AC26 was 389 nM.
Consider `Cc1ccc(S(=O)(=O)Nc2ccc3c(c2)n(C)c(=O)n3C)cc1`, for which the AC26 is 1460 nM.
Take `COc1cccc(C(NC(C)=O)c2nc(-c3ccc(F)cc3OC)cs2)c1` (configuration not stated): the AC26 was 105 nM.
For `O=c1[nH]c(=O)n(C2CC(O)C(CO)O2)cc1Br` (configuration not stated), the AC26 was 1490 nM.
Consider `C[C@@]12C(=O)Nc3cc(F)c(F)cc3C(=O)N1[C@H]1c3cc(Cl)ccc3OC[C@@H]1[C@@H]2c1ccccc1`, for which the AC26 was 789 nM.
The value for `O=C(Nc1ccc(-c2nc3cc(NC(=O)c4cccs4)ccc3o2)cc1)c1cccs1` was 4310 nM; that for `Oc1ccc(-c2csc(-c3c[nH]c4ccccc34)n2)c(O)c1` was 3410 nM; that for `O=C(c1ncn(Cc2ccccc2)c1C(=O)N1CCN(c2ccccc2)CC1)N1CCN(c2ccccc2)CC1` was 513 nM.
As for `C=CCOc1ccc(C(=O)Nc2ccccc2C(=O)NCc2cccnc2)cc1`, the AC26 was 2160 nM.
As for `COc1cc(F)ccc1-c1csc(C(NC(C)=O)c2ccccc2)n1` (configuration not stated), the AC26 is 11.1 nM.
In the case of `COc1ccc(CCn2c(=N)c(C(=O)NCC3CCCO3)cc3c(=O)n4cccc(C)c4nc32)cc1` (configuration not stated), the AC26 was 575 nM.
With `CCOc1cc(CNc2ccc3cn[nH]c3c2)ccc1OC` the figure was 1550 nM; with `CCOC(=O)/C(=C\c1ccccc1)C(=O)c1cc(C(C)=O)c(Nc2ccccc2)s1`, 1150 nM; with `Cc1ccc(NC2=NC3(CCCC3)N=C(N)N2)c(C)c1`, 4230 nM.
For the compound `COc1ccc(C(=O)NCCN(C)C)c2nc3ccccc3cc12`, the AC26 was 128 nM.
Consider `Cc1nc(Nc2nc(-c3ccccc3)cc(=O)[nH]2)nc2ccccc12`, for which the AC26 is 1690 nM.
Take `CC(C)N(CC(=O)Nc1ccc(Cl)cc1C(F)(F)F)C(=O)CCl`: the AC26 was 14500 nM.
Take `CC(C)CN(C(=O)COC(=O)CCSc1ccc(Cl)cc1)c1c(N)n(Cc2ccccc2)c(=O)[nH]c1=O`: the AC26 was 4450 nM.
As to `COCCCNC(=O)Cc1c(C)c2c(cc(C)c3c(C(C)(C)C)coc32)oc1=O`, the AC26 is 1510 nM.
Take `Cc1ccc(C2=NN(C(=O)CSc3nccn3C)C(c3ccco3)C2)cc1` (configuration not stated): the AC26 is 6070 nM.
With `COc1ccc(S(=O)(=O)N2N=C(C)Oc3ccccc3C2=O)cc1`, the AC26 was 1250 nM.
Turning to `CC1=CC(C)[C@H](/C=N/n2c(=O)[nH]c3c([nH]c4ccc(Br)cc43)c2=O)C(C)C1` (some centres not stated), the AC26 was 3780 nM.
In the case of `COc1ccc(C(=O)/C=C/c2ccccc2)c(O)c1`, the AC26 is 1520 nM.
With `CCOC(=O)c1c(C)nc2sc3c(=O)n(-c4ccc(C)cc4)cnc3c2c1-c1ccc(OC)cc1` the figure was 116 nM.
For the compound `COc1ccccc1/C=N/NC(=O)c1cc2c(OC)c(OC)ccc2[nH]1`, the AC26 was 495 nM.
The value for `O=C(Nc1ccccc1O)c1ccc(NC(=O)C2CC2)cc1` was 4330 nM.
The value for `COc1ccc([C@@H]2[C@@H]3C(=O)N(C(C)(C)C)C(=O)[C@@H]3[C@]3(Cc4ccccc4)C(=O)N(c4cccc(Br)c4)C(=O)N23)cc1` was 1600 nM.
Regarding `Cc1ccc(-c2nn3c(C)nnc3c3ccccc23)cc1S(=O)(=O)N(C)CCO`, the AC26 was 4210 nM.
Consider `Cn1c(C(=O)OCC(=O)NCc2ccc(F)cc2)cc2occc21`, for which the AC26 is 8970 nM.
Regarding `CNC(=O)c1cccc(NC(=O)c2ccccc2OCc2ccccc2)c1`, the AC26 is 355 nM.
For the compound `COc1cc(/C=C/C(=O)/C=C(O)/C=C/c2ccc(O)c(OC)c2)ccc1O`, the AC26 is 2090 nM.
With `CC(=O)NC(c1cccc(F)c1)c1nc(-c2ccccc2C)cs1` (configuration not stated), the AC26 was 502 nM.
With `NC1(C(=O)O)CSSC1`, the AC26 is 221 nM.
Turning to `CCN(CC)c1ccc(/C=C2\C(=O)N(c3nnc(C)c(=O)[nH]3)N=C2C)cc1`, the AC26 is 1420 nM.
With `Cc1cc(C)c(S(=O)(=O)N(C)CC(=O)N2CCCC2)c(C)c1` the figure was 2910 nM.
Regarding `CCOC(=O)[C@H]1[C@H]2COc3ccc(OC)cc3[C@@H]2N2C(=O)c3cc(OC)c(OC)cc3NC(=O)[C@@]12C`, the AC26 was 300 nM.
For `COc1ccc(NC(=O)C2(C)Cc3c(-c4cccc(C(N)=O)c4)ccnc3O2)cc1` (configuration not stated), the AC26 is 2320 nM.
`CCCOC(=O)c1[nH]c2c(c1C)C(=O)CC(c1cccs1)C2` (configuration not stated): the AC26 is 623 nM.
For the compound `Nc1[nH]nc2nc(NCc3ccccc3)c3c(c12)CCN(Cc1ccccc1)C3`, the AC26 was 1030 nM.
Regarding `CN(C)c1ccc(-c2ccnc3c2CC(C)(C(=O)NCc2ccccc2)O3)cc1` (configuration not stated), the AC26 was 5530 nM.
In the case of `CC12CC[C@H]3[C@@H](CCC4(O)C[C@H](O)CCC34/C=N/NC(=O)c3ccccc3O)C1(O)CCC2C1=CC(=O)OC1` (some centres not stated), the AC26 was 6060 nM.
Take `Cn1nc(-c2ccc(Cl)cc2)c2cc(C(=O)NC3CC3)sc21`: the AC26 is 6320 nM.
With `NC(=O)CC(NC(=O)c1ccc(Br)cc1)c1ccc(N2CCCCCC2)c([N+](=O)[O-])c1` (configuration not stated) the figure was 1410 nM; with `COc1ccc(Nc2nc(C)nc3sc4c(c23)CCC4)cc1O`, 11400 nM.
Take `COC(=O)c1ccc(S(=O)(=O)N2CCc3ccccc32)cc1`: the AC26 was 10600 nM.
For the compound `O=C1NC(=O)N(c2ccccc2)C(=O)/C1=C\C=C\c1ccccc1`, the AC26 is 679 nM.
As for `C(=C\c1nccc2c1[nH]c1ccccc12)/c1ccccc1`, the AC26 is 4680 nM.
On to `Cc1ccnc(NC(=O)C(Cc2ccccc2)NC(=O)c2ccccc2)c1` (configuration not stated), for which the AC26 was 564 nM.
Regarding `O=C(/C=C/c1ccc(-c2ccccc2[N+](=O)[O-])o1)c1ccc(Br)cc1`, the AC26 was 4780 nM.
As to `Cn1c(=O)n(C)c2cc(NS(=O)(=O)c3ccccc3)ccc21`, the AC26 was 3430 nM.
For the compound `Nc1nc(=S)c2ncn([C@@H]3O[C@H](CO)[C@@H](O)[C@H]3O)c2[nH]1`, the AC26 is 368 nM.
Regarding `O=C(Nc1ncccc1O)c1ccc(S(=O)(=O)Nc2ccccc2)cc1`, the AC26 is 2190 nM.
`Nc1nc(CN2CCN(Cc3ccccc3)CC2)nc(Nc2ccc3c(c2)OCCO3)n1`: the AC26 is 699 nM.
As to `O=C(C[C@@H]1C/C=C/CC[C@H](Cc2ccc(F)cc2)C(=O)OC[C@@H](Cc2ccccc2)NC1=O)N[C@H](CO)Cc1ccccc1`, the AC26 was 4880 nM.
For the compound `COc1ccccc1NS(=O)(=O)c1ccc(C(=O)Nc2ncccc2O)cc1`, the AC26 was 7090 nM.
With `CCN1Cc2c(/C=C/c3ccccc3)nc3ccc(OC)cc3c2N(c2cccc(Cl)c2)C1`, the AC26 is 14300 nM.
In the case of `COc1cc2[nH]c(C(=O)Nc3ccc(F)cc3)cc2c(OC)c1OC`, the AC26 is 742 nM.
For the compound `COC(=O)c1cn(C(=O)/C=C/c2ccc(OC)c(OC)c2)c2ccccc12`, the AC26 is 1640 nM.
Regarding `Cc1ccc(/C=N/NC(=O)c2sccc2OCc2ccc(F)cc2)cc1`, the AC26 was 2440 nM.
`CCN(CC)c1ccc(/C=N/n2nnnc2N)c(O)c1`: the AC26 was 3410 nM.
Turning to `COC(=O)COc1cccc2c(=O)n(CC(=O)NCc3ccccc3)ccc12`, the AC26 was 1250 nM.
With `C#CCCOC(=O)N1C2=NC(C(=O)OC)=C(C(=O)OC)[C@@H]3N(C)c4ccccc4[C@]23C[C@H]1C(=O)OC`, the AC26 was 479 nM.
With `O=C1C=C(c2cccs2)C[C@H](c2ccccc2)[C@H]1n1nnc([N+](=O)[O-])n1`, the AC26 is 260 nM.
On to `COc1ccc(NC(=O)c2oc3ccccc3c2NC(=O)c2ccco2)cc1`, for which the AC26 was 11700 nM.
Take `O=C(NCCc1ccccc1)c1coc(=O)c(Br)c1`: the AC26 was 1530 nM.
The value for `C[C@@]12C(=O)Nc3ccc(F)cc3C(=O)N1[C@H]1c3cc(Cl)ccc3OC[C@@H]1[C@@H]2c1ccccc1` was 1070 nM.
On to `Cc1c(C(=O)OCC(C)C)[nH]c2c1C(=O)CC(c1cccs1)C2` (configuration not stated), for which the AC26 was 1170 nM.
As to `CCOc1ccccc1NC(=O)CN(c1ccc(OC)cc1)S(=O)(=O)c1c(C)noc1C`, the AC26 was 4150 nM.
Regarding `COc1ccc(-c2cc3ccccc3oc2=O)cc1NC(=O)c1ccc([N+](=O)[O-])o1`, the AC26 was 751 nM.
With `O=C(CCl)Nc1ccc(Sc2ccc(NC(=O)CCl)cc2)cc1`, the AC26 was 667 nM.
With `COc1ccc2[nH]c3c(N4CCC(O)(c5cccc(C(F)(F)F)c5)CC4)ncnc3c2c1`, the AC26 is 2740 nM.
The value for `COc1ccc2[nH]c(C(=O)N/N=C/c3ccccc3OC)cc2c1` was 1010 nM.
On to `CCN(CC)CCNc1nc2cc(OC)c(OC)cc2c2nc(-c3ccccc3)nn12`, for which the AC26 was 1860 nM.
With `CN1/C(=C/C=C(/C#N)C(N)=O)C(C)(C)c2ccccc21`, the AC26 is 55.6 nM.
Take `NC(=O)N=Nc1c2[nH]c3ccccc3nc-2c2ccccc12`: the AC26 is 1130 nM.
Take `O=C1Cc2c([nH]c3ccc(Br)cc23)-c2ccccc2N1`: the AC26 was 351 nM.
Consider `O=C(NCc1ccco1)C1CC(c2ccc(C(F)(F)F)cc2)=NO1` (configuration not stated), for which the AC26 is 9730 nM.
For `O=C(Nc1cccc(NC(=O)c2cccs2)c1)c1ccc([N+](=O)[O-])o1`, the AC26 is 1820 nM.
For the compound `CC(C)(C)c1ccc(C(=O)O/N=C(\N)Cc2cccs2)cc1`, the AC26 is 11800 nM.
As to `C=CCNc1nc2cc(-c3ccccc3C)sc2c(=O)n1C`, the AC26 is 2810 nM.
For the compound `COc1ccccc1-n1cnc2cc(NCc3cccs3)ccc21`, the AC26 was 141 nM.

For the origin of these results see PubChem BioAssay AID624491 (Broad Institute, 2012).
